Several values for one entry are separate records, joined by “and”; a condition that tells them apart may be missing. Equal entries are not always repeated.
Columns and labels:
HL-60 cells [1] = experiment: Labeling of CPT-treated HL-60 cells with FLISP (FFCK, FLCK) and FLICA (FAM-VAD-FMK, SR-VAD-FMK) reagents, by LSC or fluorescence microscopy; type: cell-based, Human; settings: for binding of the ligand by cells treated with CPT vs untreated (control) cells: HL-60, 3 h CPT, combined with PI; for fluorescence of labeled cells (appearance): dual labeling with SR-VAD-FMK, CPT-treated HL-60, microscopy/LSC imaging
Procedure: (§1) Preparation of reagents: Fluorescent inhibitors of serine proteases (FLISP) reagents, 5(6)-Carboxyfluoresceinyl-L-phenylalanylchloromethyl ketone (FFCK) and 5(6)-carboxyfluoresceinyl-L-leucylchloromethyl ketone (FLCK) were dissolved initially in dimethyl sulfoxide (DMSO; Sigma) to yield a 10 mM concentration. Aliquots were made from this stock solution and stored frozen at −20° C. protected from light. This reagent stock was then diluted directly into the cell culture media to give a 1× working reagent concentration of 10 μM. Dilution of the reagent into aqueous (cell culture) media is done just prior to cell exposure to preserve the labile chloromethyl ketone reactivity of FLISP reagent.
Fluorescent inhibitors of caspases (FLICA) reagents, namely the fluorescein labeled VAD-FMK (FAM-VAD-FMK) and sulforhodamine labeled VAD-FMK (SR-VAD-FMK) (Immunochemistry Technologies; Bloomington, Minn.) were both designed to detect the presence of active caspases within apoptotic cells. These inhibitors were dissolved in DMSO to obtain a 150× concentrated stock solution. Aliquots of these solutions were stored at −20° C. in the dark. Prior to use, a 30× working solution of either FAM-VAD-FMK or SR-VAD-FMK was prepared by diluting the stock solution 1:5 in phosphate buffered saline (PBS) and mixing until the solution become clear. The 30× working solution was diluted 1:30 cell culture media to give a final 1× working reagent concentration of 10 μM.
Cells: Human promyelocytic leukemic HL-60 cells were obtained from American Type Culture Collection (ATCC; Rockville, Md.). They were cultured in 25 mL FALCON flasks (Becton Dickinson Co., Franklin Lakes, N.J.) using RPMI 1640 supplemented with 10% fetal calf serum, 100 units/mL penicillin, […] and 2 mM L-glutamine (all from Gibco/BRL Life Technologies, Inc., Grand Island, N.Y.) in a humidified incubator set to maintain 37.5° C. and 5% CO2 as previously described (Bedner et al., Exp Cell Res., 2000, 259:308-313; Smolewski et al., Cytometry, 2001, 44:73-82). At the onset of experiments, there were fewer than 5×10^5 cells/ml in culture. To induce apoptosis the cells were treated with 0.15 μM DNA topoisomerase I inhibitor camptothecin (CPT; Sigma Chemical Co., St. Louis, Mo.) for 3 hours.
Cell staining and fluorescence measurement by LSC: The HL-60 cells from the untreated or CPT treated cultures were centrifuged (200 g, 5 min) and resuspended in PBS at approximately 10^4 cells per 5 mL volume. Cells were then attached electrostatically to microscope slides as described before (Bedner et al., Exp Cell Res., 2000, 259:308-313; Smolewski et al., Cytometry, 2001, 44:73-82). The attachment was achieved by the incubation (15 min) of cells suspended in serum-free PBS in shallow (<1 mm depth; 1.5×1.5 cm) wells on horizontally placed microscope slides that were rinsed in 100% ethanol and air dried prior to use, at 100% humidity. The electrostatically attached cells remain viable, exclude such dyes as trypan blue and propidium iodide (PI), and have unchanged morphology for several hours (Bedner et al., Exp Cell Res., 2000, 259:308-313). After the cells became attached, PBS was removed from the wells and was replaced by 150 μL of the culture medium containing 10% FCS. FLISP staining solutions were prepared by diluting 5 μL of the 10 mM FFCK or FLCK stock solution into 5 mL of culture medium yielding a final FLISP concentration 10 μM. […]

HL-60 cells [2] = experiment: Pretreatment of HL-60 cells with unlabeled protease inhibitors during CPT induction of apoptosis; subsequent binding of FAM-VAD-FMK, FFCK or FLCK measured by LSC; type: cell-based, Human; settings: HL-60, 0.15 μM CPT 3 h, pretreatment with unlabeled inhibitor (Z-VAD-FMK 50 μM); probe 10 μM; mean ± SE of three experiments
Procedure: as §1
Fluorescent inhibitors of caspases (FLICA) reagents, namely the fluorescein labeled VAD-FMK (FAM-VAD-FMK) and sulforhodamine labeled VAD-FMK (SR-VAD-FMK) (Immunochemistry Technologies; Bloomington, Minn.) were both designed to detect the presence of active caspases within apoptotic cells. These inhibitors were dissolved in DMSO to obtain a 150× concentrated stock solution. Aliquots of these solutions were stored at −20° C. in the dark. […]
Cell staining and fluorescence measurement by LSC: The HL-60 cells from the untreated or CPT treated cultures were centrifuged (200 g, 5 min) and resuspended in PBS at approximately 10^4 cells per 5 mL volume. […]

Substance | binding of the ligand by cells treated with CPT vs untreated (control) cells (HL-60 cells [1]) | fluorescence of labeled cells (appearance) (HL-60 cells [1]) | greater fluorescence intensity of FLCK labeled cells compared to cells labeled with FFCK (HL-60 cells [1]; identical settings of photomultiplier sensitivity) | percent decrease in frequency of FLCK labeled cells vs cells treated with CPT without unlabeled inhibitor (HL-60 cells [2])
5(6)-Carboxyfluoresceinyl-L-phenylalanylchloromethyl ketone [FFCK] | induced binding | strong |  | 
5(6)-Carboxyfluorescyl-L-leucylchloromethyl ketone [FLCK] | induced binding | faint | approximately 60% | 
N-tosyl-L-phenylalanine chloromethyl ketone [TPCK] |  |  |  | 38.9% and 38.9 ± 1.7%

From patent publication US20050136492A1, “Affinity labeling of enzymes for detection of enzyme activity level in living cells” (priority 2001, published 2005)
